The values below come from US20250276955A1, “CORONAVIRUS MAIN PROTEASE INHIBITORS AND METHODS USING SAME” (Baylor College of Medicine, priority 2021, published 2025).

Data set [1] has as its target SARS-COV-2 M^pro (authentic N- and C-termini) (Severe acute respiratory syndrome coronavirus 2, UniProt P0DTD1). As to the kind of experiment: biochemical. It is filed as biochemical.
The next data set concerns the target SARS-COV-2 M^pro-His6 (Severe acute respiratory syndrome coronavirus 2, UniProt P0DTD1). As to the kind of experiment: biochemical. It is filed as biochemical. The note with it: 25 nM enzyme, 15 μM fluorescent peptide, Morrison equation; Inactive = less than 50% inhibition at 25 μM compound; read-out: M^pro-His Ki.
The test system of another data set is HepG2 cells. In words: HepG2 cytotoxicity assay (XTT). In general terms: Formazan colour is commonly taken as a measure of viable cells.
Data set [2] is described as follows: Metabolic stability in mouse liver microsomes. It is filed as in vitro ADME. An outline of the steps: (§1)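 Mouse or human liver microsomal incubations sampled in duplicate at 0, 30 and 60 min, quenched with equal volume ice-cold methanol. Supernatant analysed by UHPLC-Orbitrap MS, C18 column at 40° C, positive ESI, m/z 80–1,200.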
For data set [3], the target named is SARS-CoV-2 main protease (M^pro) (Severe acute respiratory syndrome coronavirus 2, UniProt P0DTD1). As to the kind of experiment: Protein thermal shift stability assay (SYPRO Orange). It is filed as binding.
Another data set has as its target T1, human thrombin (Homo sapiens, UniProt P00734).
T1 construct: purchased Sigma-Aldrich MAK243
As to the kind of experiment: Thrombin fluorescence assay. In kind it is biochemical. The note with it: fluorescence assay.

Data set [4] can be described thus: Metabolic stability in human liver microsomes. In kind it is in vitro ADME. In a few lines:
as §1

The subject of data set [5] is SARS-COV-2 (USA_WA1/2020 isolate) in VERO E6 cells. As to the kind of experiment: Real-Time Cell Analysis (RTCA) assay of SARS-COV-2 replication. In kind it is cell-based. The following applies: VERO E6 cells, 75 h.
Data set [6] in a line: Plasma stability assay, mouse plasma. In kind it is in vitro ADME. The following applies: 10 μM, 37° C., after 2 h incubation. The method, then: Compound CDD-1713 and CDD-1976 were incubated in human and mouse plasma respectively at a concentration of 10 μM in duplicate (n=2) at 37° C. At time-points of 0, 30, 60 and 120 min, 15 μL of sample were taken out and the reactions terminated by adding 75 μL of ice-cold methanol. The reaction mixtures were then vortexed for 30 sec and centrifuged at rcf 15,000 for 15 min. Following centrifugation, 3 μL of the supernatant was analyzed using UHPLC-Q Exactive Orbitrap MS. The percentage of test compound remaining at the individual time points relative to the 0 min sample was then determined.

The target in the next data set is T2, Human Cathepsin B (Homo sapiens, UniProt P07858).
T2 construct: purchased BPS Bioscience 79590
In words: Cathepsin B assay. It is filed as biochemical. On the procedure: A kit from BPS Bioscience (#79590) was used with adjustments to the manufacturer's protocol as follows: The activated enzyme was diluted 250-fold just before use, and the reaction was run at RT in black 96 half-area plates in a total reaction volume of 50 uL containing 0.01% Tween-20. Instead of measuring endpoints at 60 min the increase in fluorescence (Ex 360 nm, Em 460 nm) per second (RFU/s) was obtained from linear progress curves over 10 min. Fractional activities were calculated from reactions with no inhibitors. E-64 was used as a positive control.

The subject of the next data set is 293T. In words: 293T relative cell viability. The note with it: day 3, 10 μM.
A further data set deals with T3, renin (Homo sapiens, UniProt P00797).
T3 construct: purchased BPS Bioscience 80211
T3 sequence (P00797 67-406): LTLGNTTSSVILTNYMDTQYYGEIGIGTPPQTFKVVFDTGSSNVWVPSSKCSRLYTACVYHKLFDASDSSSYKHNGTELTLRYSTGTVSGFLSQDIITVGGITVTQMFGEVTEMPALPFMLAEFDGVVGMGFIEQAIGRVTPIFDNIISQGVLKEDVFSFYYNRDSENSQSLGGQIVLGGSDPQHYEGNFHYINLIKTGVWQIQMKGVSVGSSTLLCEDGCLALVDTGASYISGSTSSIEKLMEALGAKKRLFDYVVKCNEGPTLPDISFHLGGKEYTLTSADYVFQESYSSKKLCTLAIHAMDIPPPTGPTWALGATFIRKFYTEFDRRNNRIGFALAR
In words: Renin assay. It is filed as biochemical. The note with it: read-out: estimated Kiapp, renin. The method, then:
A kit from BPS Bioscience (#80211) was used with adjustments to the manufacturer's protocol as follows: The reaction was run at RT in black 96 half-area plates in a total reaction volume of 50 uL containing 0.01% Tween-20. Instead of measuring endpoints at 30 min the increase in fluorescence (Ex 490 nm, Em 520 nm) per second (RFU/s) was obtained from linear progress curves over 10 min. Fractional activities were calculated from reactions with no inhibitors. Aliskiren was used as a positive control.

A further data set deals with T4, HOVPro-Gi.1 (Norovirus, UniProt Q83883).
T4 construct: HOVPro-Gi.1
As to the kind of experiment: Thermal shift, HOVPro-Gi.1. It is filed as binding.

“Also recorded” adds a separate entry of the source. Read-outs that look alike come from different tables or passages of the source.

T4 sequence (Q83883 1101-1281): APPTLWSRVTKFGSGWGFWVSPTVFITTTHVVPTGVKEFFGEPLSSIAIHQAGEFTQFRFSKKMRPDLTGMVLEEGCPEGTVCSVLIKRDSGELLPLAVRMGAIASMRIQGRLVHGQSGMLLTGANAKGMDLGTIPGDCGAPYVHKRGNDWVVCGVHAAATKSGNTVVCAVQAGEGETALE

For `COc1cc(-c2cccc3[nH]ncc23)cc(C=O)c1OCC(=O)N(C)C` [CDD-1713, 2-(2-formyl-4-(1H-indazol-4-yl)-6-methoxyphenoxy)-N,N-dimethylacetamide], the Ki in data set [1] (25 nM enzyme, 15 μM fluorescent peptide, Morrison equation, Inactive = less than 50% inhibition at 25 μM compound, read-out: M^pro Ki) was 0.0648 ± 0.0049 µM; in [1] (Morrison equation, read-out: apparent Ki against M^pro) it was 0.0648 µM; in [1] (Table 5, read-out: Ki,app), 0.0648 µM; in data set [1] (read-out: Ki, app towards SARS-CoV-2 M^pro, athentic termini, authentic termini), 0.0648 µM; at SARS-COV-2 M^pro-His6, 0.0448 ± 0.0029 µM; on renin it was 53 µM. Besides, the “cytotoxicity in HepG2 cells (in words)” value in the data set on HepG2 cells (100 μM) is on record as “no obvious cytotoxicity”. Moreover, the 50% inhibitory concentration (IC50) (usually the concentration needed to halve the response being measured) in the data set on HepG2 cells (Homo sapiens, HepG2, 24 h, read-out: HepG2 cell viability IC50) is over 100 µM; in [5] (Severe acute respiratory syndrome coronavirus 2, Vero C1008, read-out: IC50, inhibition of SARS-COV-2 induced cell death (RTCA)) it was 5.19 µM. Further, the “MLM t1/2” value in data set [2] (Table 4) was determined as 8.4 min. In addition, the microsomal CLint (as a rule, the rate of metabolic loss divided by the concentration) at 2 μM in [2] (mouse, liver microsomes) was determined as 147 µL/min/mg; in data set [4] (human, liver microsomes) it was 90.6 µL/min/mg. Also, the “metabolic stability in mouse liver microsomes (in words)” value in [2] (mouse, microsomes) is “metabolically labile”. For the same compound, in data set [3], the “stabilization of M^pro in thermal shift assay (in words)” value is “stabilized; also recorded: concentration-dependent stabilization”. Besides, the “ΔTm of Mpro at 50 μM compound conc.” value in data set [3] (50 μM compound, […]) is 2.99 °C. Moreover, the Thrombin inhibition result on human thrombin was “None”. Besides, the “thrombin inhibition (in words)” value at human thrombin is reported as “No inhibition”. Besides, the “HLM t1/2” value in data set [4] (Table 4) is 15.3 min. Further, the “metabolic stability in human liver microsomes (in words)” value in data set [4] (human, microsomes) was “metabolically labile”. Besides, the “prevention of SARS-COV-2 induced cell death (in words)” value in [5] is “reduced cell death in a dose-dependent manner”. The “compound remaining in mouse plasma” value in data set [6] amounted to 80%. Also, the “Human Cathepsin B, Fractional Remaining Activity” value on Human Cathepsin B is 0.97. Moreover, the “293T day 3 relative cell viability (% inhibition at 10 μM)” value in the data set with 293T is “None”. The “ΔTm of HOVPro-Gi.1 at 50 μM compound conc.” value at HOVPro-Gi.1 is −0.09 °C.
